The target of this experiment is T1, Itk (Homo sapiens, UniProt Q08881).
T1 sequence (Q08881 1-620): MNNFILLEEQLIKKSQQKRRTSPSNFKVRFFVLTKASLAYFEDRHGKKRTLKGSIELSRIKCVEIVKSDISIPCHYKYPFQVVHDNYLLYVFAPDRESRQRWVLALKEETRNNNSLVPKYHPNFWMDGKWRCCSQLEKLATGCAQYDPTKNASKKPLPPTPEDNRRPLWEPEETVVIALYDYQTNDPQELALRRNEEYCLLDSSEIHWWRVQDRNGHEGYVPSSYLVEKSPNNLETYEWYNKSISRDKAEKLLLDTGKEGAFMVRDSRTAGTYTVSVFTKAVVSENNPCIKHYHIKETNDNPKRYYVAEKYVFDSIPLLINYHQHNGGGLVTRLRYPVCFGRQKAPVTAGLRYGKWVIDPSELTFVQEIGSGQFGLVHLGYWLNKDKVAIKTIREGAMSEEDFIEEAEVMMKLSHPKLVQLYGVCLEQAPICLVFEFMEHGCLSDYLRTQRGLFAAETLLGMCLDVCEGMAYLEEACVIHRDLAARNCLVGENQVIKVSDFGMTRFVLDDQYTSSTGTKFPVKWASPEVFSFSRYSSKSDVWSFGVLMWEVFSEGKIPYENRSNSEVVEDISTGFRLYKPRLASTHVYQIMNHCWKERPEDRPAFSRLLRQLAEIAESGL
The experiment can be described thus: Itk inhibition assay: spectrophotometric coupled enzyme (Method C). Conditions: 100 μM ATP, read-out: Ki in the standard coupled enzyme assay (Method C). The class given is biochemical. How it is done: The compounds of the present invention were evaluated as inhibitors of human Itk kinase using either a radioactivity-based, spectrophotometric or alphascreen assay.
Compounds were screened for their ability to inhibit Itk using a standard coupled enzyme assay (Fox et al., Protein Sci., (1998) 7, 2249).
Assays were carried out in a mixture of 20 mM MOPS (pH 7.0), 10 mM MgCl2, 0.1% BSA, 1 mM DTT, 2.5 mM phosphoenolpyruvate, 300 μM NADH, 30 μg/ml pyruvate kinase and 10 μg/ml lactate dehydrogenase. Final substrate concentrations in the assay were 100 μM ATP (Sigma Chemicals) and 3 μM peptide (Biotinylated SAM68 Δ332-443). Assays were carried out at 25° C. and in the presence of 10 nM Itk.
An assay stock buffer solution was prepared containing all of the reagents listed above, with the exception of ATP and the test compound of interest. 60 μl of the stock solution was placed in a 96 well plate followed by addition of 2 μl of DMSO stock containing serial dilutions of the test compound (typically starting from a final concentration of 15 μM). The plate was preincubated for 10 minutes at 25° C. and the reaction initiated by addition of 5 μl of ATP. Initial reaction rates were determined with a Molecular Devices SpectraMax Plus plate reader over a 10 minute time course. IC50 and Ki data were calculated from non-linear regression analysis using the Prism software package (GraphPad Prism version 3.0cx for Macintosh, GraphPad Software, San Diego Calif., USA).

The structures appear in SMILES notation.

In general, Ki refers to the dissociation constant of the complex between target and ligand, obtained from inhibition or displacement. Consider `CC(=O)N1CCC(CNC(=O)c2cc3c(ccc4cnc(Nc5cccc(C(C)(C)C)c5)nc43)s2)C1` (centres unmarked) [Compound V-119], for which the inhibition constant (Ki) is less than 1000 nM.
As for `O=C(c1ccc(Nc2ncc3ccc4sc(C(=O)N5CCNCC5)cc4c3n2)cc1)N1CCOCC1` [Compound V-120], the figure is less than 1000 nM; as for `CN(C)C(=O)c1ccc(Nc2ncc3ccc4sc(C(=O)N5CCNCC5)cc4c3n2)cc1` [Compound V-121], less than 1000 nM; as for `CN1CCN(C(=O)c2ccc(Nc3ncc4ccc5sc(C(=O)N6CCNCC6)cc5c4n3)cc2)CC1` [Compound V-122], less than 1000 nM.
Take `O=C(c1cc2c(ccc3cnc(NCCc4ccccc4)nc32)s1)N1CCNCC1` [Compound V-125]: the inhibitory constant (Ki) is less than 1000 nM.
As for `O=C(c1cc2c(ccc3cnc(N[C@H]4C[C@@H]4c4ccccc4)nc32)s1)N1CCNCC1` [Compound V-127], the Ki is less than 1000 nM.
As for `CS(=O)(=O)c1cccc(Nc2ncc3ccc4sc(C(=O)NCc5ccccc5)cc4c3n2)c1` [Compound V-129], the figure is less than 1000 nM; as for `CS(=O)(=O)c1cccc(Nc2ncc3ccc4sc(C(=O)N5CCCC5)cc4c3n2)c1` [Compound V-130], less than 1000 nM.
Turning to `CS(=O)(=O)c1cccc(Nc2ncc3ccc4sc(C(=O)N5CCNC(=O)C5)cc4c3n2)c1` [Compound V-131], the inhibition constant Ki is less than 1000 nM.
On to `CS(=O)(=O)c1cccc(Nc2ncc3ccc4sc(C(=O)NC5(CO)CCCC5)cc4c3n2)c1` [Compound V-132], for which the inhibition constant Ki is less than 1000 nM.
The result for `CS(=O)(=O)c1cccc(Nc2ncc3ccc4sc(C(=O)NCCO)cc4c3n2)c1` [Compound V-133] reads less than 1000 nM; that for `COCCNC(=O)c1cc2c(ccc3cnc(Nc4cccc(S(C)(=O)=O)c4)nc32)s1` [Compound V-134], less than 1000 nM; that for `CC(=O)NCCNC(=O)c1cc2c(ccc3cnc(Nc4cccc(S(C)(=O)=O)c4)nc32)s1` [Compound V-135], less than 1000 nM.
The result for `CS(=O)(=O)c1cccc(Nc2ncc3ccc4sc(C(=O)N5CCCNCC5)cc4c3n2)c1` [Compound V-136] reads less than 1000 nM.
As for `CC1CN(C(=O)c2cc3c(ccc4cnc(Nc5cccc(S(C)(=O)=O)c5)nc43)s2)CC(C)N1` (centres unmarked) [Compound V-137], the figure is less than 1000 nM; as for `CC(=O)N1CCCN(C(=O)c2cc3c(ccc4cnc(Nc5cccc(S(C)(=O)=O)c5)nc43)s2)CC1` [Compound V-138], less than 1000 nM.
With `COCCN(C)C(=O)c1cc2c(ccc3cnc(Nc4cccc(S(C)(=O)=O)c4)nc32)s1` [Compound V-139], the Ki was less than 1000 nM.
`CC(C)N(C)C(=O)c1cc2c(ccc3cnc(Nc4cccc(S(C)(=O)=O)c4)nc32)s1` [Compound V-140]: the inhibitory constant (Ki) is less than 1000 nM.
As for `CN(C)C(=O)c1cc2c(ccc3cnc(Nc4cccc(S(C)(=O)=O)c4)nc32)s1` [Compound V-141], the Ki was less than 1000 nM.
With `CS(=O)(=O)c1cccc(Nc2ncc3ccc4sc(C(=O)N5CCC[C@H]5CO)cc4c3n2)c1` [Compound V-142], the Ki is less than 1000 nM.
Regarding `C[C@@H]1CN(C(=O)c2cc3c(ccc4cnc(Nc5cccc(S(C)(=O)=O)c5)nc43)s2)C[C@H](C)O1` [Compound V-143], the inhibitory constant (Ki) is less than 1000 nM.
As to `CS(=O)(=O)c1cccc(Nc2ncc3ccc4sc(C(=O)N5CCC(C(N)=O)CC5)cc4c3n2)c1` [Compound V-144], the Ki was less than 1000 nM.
The result for `CS(=O)(=O)c1cccc(Nc2ncc3ccc4sc(C(=O)NCCN5CCNC5=O)cc4c3n2)c1` [Compound V-145] reads less than 1000 nM; that for `CS(=O)(=O)c1cccc(Nc2ncc3ccc4sc(C(=O)NCC5CCNC5)cc4c3n2)c1` (centres unmarked) [Compound V-146], less than 1000 nM.
As to `CC(=O)N1CCN(C(=O)c2cc3c(ccc4cnc(Nc5cccc(S(C)(=O)=O)c5)nc43)s2)CC1` [Compound V-147], the inhibition constant (Ki) is less than 1000 nM.
For the compound `CC(=O)NC1CCN(C(=O)c2cc3c(ccc4cnc(Nc5cccc(S(C)(=O)=O)c5)nc43)s2)C1` (centres unmarked) [Compound V-148], the inhibition constant (Ki) is less than 1000 nM.
As for `CS(=O)(=O)c1cccc(Nc2ncc3ccc4sc(C(=O)NCC5CCNCC5)cc4c3n2)c1` [Compound V-149], the figure is less than 1000 nM.
`CS(=O)(=O)c1cccc(Nc2ncc3ccc4sc(C(=O)NC5CCOCC5)cc4c3n2)c1` [Compound V-150]: the Ki was less than 1000 nM.
As for `CS(=O)(=O)c1cccc(Nc2ncc3ccc4sc(C(=O)NC5CCC(O)CC5)cc4c3n2)c1` (centres unmarked) [Compound V-151], the figure is less than 1000 nM; as for `CN(CCO)C(=O)c1cc2c(ccc3cnc(Nc4cccc(S(C)(=O)=O)c4)nc32)s1` [Compound V-152], less than 1000 nM; as for `COC[C@H](C)NC(=O)c1cc2c(ccc3cnc(Nc4cccc(S(C)(=O)=O)c4)nc32)s1` [Compound V-153], less than 1000 nM.
Take `CS(=O)(=O)c1cccc(Nc2ncc3ccc4sc(C(=O)N5CCC(O)CC5)cc4c3n2)c1` [Compound V-154]: the inhibition constant (Ki) was less than 1000 nM.
With `COC[C@H]1CCCN1C(=O)c1cc2c(ccc3cnc(Nc4cccc(S(C)(=O)=O)c4)nc32)s1` [Compound V-155], the Ki is less than 1000 nM.
On to `CS(=O)(=O)c1cccc(Nc2ncc3ccc4sc(C(=O)N5CCC(O)C5)cc4c3n2)c1` (centres unmarked) [Compound V-156], for which the Ki is less than 1000 nM.
As for `CCN(CCN(C)C)C(=O)c1cc2c(ccc3cnc(Nc4cccc(S(C)(=O)=O)c4)nc32)s1` [Compound V-157], the figure is less than 1000 nM.
As for `O=C(c1cc2c(ccc3cnc(NCCc4ccc(Cl)cc4)nc32)s1)N1CCNCC1` [Compound V-159], the figure is less than 1000 nM.
Take `O=C(c1cc2c(ccc3cnc(NCCc4ccccc4Cl)nc32)s1)N1CCNCC1` [Compound V-162]: the inhibition constant Ki was less than 1000 nM.
As to `Nc1ccc(CCNc2ncc3ccc4sc(C(=O)N5CCNCC5)cc4c3n2)cc1` [Compound V-165], the Ki was less than 1000 nM.
As for `CC(=O)N1CCc2ccc(Nc3ncc4ccc5sc(C(=O)N6CCNCC6)cc5c4n3)cc21` [Compound V-166], the figure is less than 1000 nM.
The result for `O=C(c1cc2c(ccc3cnc(NCCc4cccc(Cl)c4)nc32)s1)N1CCNCC1` [Compound V-167] reads less than 1000 nM; that for `O=C(c1cc2c(ccc3cnc(NCCCc4ccccc4)nc32)s1)N1CCNCC1` [Compound V-170], less than 1000 nM.
Turning to `O=C(c1cc2c(ccc3cnc(NC4Cc5ccccc5C4)nc32)s1)N1CCNCC1` [Compound V-172], the inhibitory constant (Ki) was less than 1000 nM.
For `O=C(c1cc2c(ccc3cnc(NCCc4cccnc4)nc32)s1)N1CCNCC1` [Compound V-173], the inhibition constant (Ki) is less than 1000 nM.
For `COc1ccc(CCNc2ncc3ccc4sc(C(=O)N5CCNCC5)cc4c3n2)cc1` [Compound V-175], the inhibition constant (Ki) is less than 1000 nM.
As for `NC1CCN(C(=O)c2nc3ccc4cnc(Nc5cccc(S(N)(=O)=O)c5)nc4c3s2)CC1` [Compound V-176], the figure is less than 1000 nM; as for `NS(=O)(=O)c1cccc(Nc2ncc3ccc4nc(C(=O)N5CCNCC5)sc4c3n2)c1` [Compound V-177], less than 1000 nM.
As for `O=C(c1cc2c(ccc3cnc(NCCc4c[nH]cn4)nc32)s1)N1CCNCC1` [Compound V-178], the figure is less than 1000 nM.
As for `O=C(c1cc2c(ccc3cnc(NCCc4ccccn4)nc32)s1)N1CCNCC1` [Compound V-179], the figure is less than 1000 nM; as for `O=C(c1cc2c(ccc3cnc(NCCc4ccc(F)cc4)nc32)s1)N1CCNCC1` [Compound V-180], less than 1000 nM; as for `O=C(c1cc2c(ccc3cnc(NCCc4ccc(O)cc4)nc32)s1)N1CCNCC1` [Compound V-182], less than 1000 nM.

The values above are taken from patent US7700609B2, “Compositions useful as inhibitors of protein kinases” (Vertex Pharmaceuticals Incorporated, priority 2003, dated 2010).
